According to patent EP4800012A1, “COMPOUND ACTING AS PARP7 INHIBITOR” (Dovetree Medicines Unus, Inc., priority 2023, dated 2025):

Columns and labels:
[1] = biological target: T1, PARP7 (Homo sapiens, UniProt Q7Z3E1); test: PARP7 TR-FRET binding inhibition (displacement of probe RBN011147); details: TR-FRET, Biotin-labeled probe RBN011147; read-out: PARP7 binding inhibition IC50
T1 construct: purchased BPS 80527
T1 sequence (Q7Z3E1 1-657): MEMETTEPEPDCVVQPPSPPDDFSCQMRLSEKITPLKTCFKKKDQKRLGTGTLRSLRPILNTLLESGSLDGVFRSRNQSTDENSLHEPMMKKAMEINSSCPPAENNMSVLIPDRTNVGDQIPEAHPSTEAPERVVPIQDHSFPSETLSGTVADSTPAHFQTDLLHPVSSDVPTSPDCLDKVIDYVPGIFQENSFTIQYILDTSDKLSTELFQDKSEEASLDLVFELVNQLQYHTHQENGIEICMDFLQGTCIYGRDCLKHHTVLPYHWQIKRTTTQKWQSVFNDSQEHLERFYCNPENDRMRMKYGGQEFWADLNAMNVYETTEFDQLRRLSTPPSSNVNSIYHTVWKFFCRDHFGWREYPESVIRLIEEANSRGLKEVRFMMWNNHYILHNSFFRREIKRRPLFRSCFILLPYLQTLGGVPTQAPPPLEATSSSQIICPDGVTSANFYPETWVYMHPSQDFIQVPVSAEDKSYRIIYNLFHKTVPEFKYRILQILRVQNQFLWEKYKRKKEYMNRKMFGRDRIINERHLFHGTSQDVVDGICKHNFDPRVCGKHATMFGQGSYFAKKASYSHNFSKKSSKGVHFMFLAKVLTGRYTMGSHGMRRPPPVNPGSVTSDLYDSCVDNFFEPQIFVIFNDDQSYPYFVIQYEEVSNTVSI
Description: The ability of the compound to substitute the probe RBN011147 (Wigle et al., 2020, Cell Chemical Biology 27, 877-887) was tested by a TR-FRET method, and IC50 was calculated to evaluate the binding ability of the compound to PARP7. […]

[2] = system: NCI-H1373 cells; test: Inhibition on NCI-H1373 cell proliferation (Cell-Titer-Glo); format: cell-based; details: Homo sapiens, 144 h; NCI-H1373 cells, incubation for 6 days, Cell-Titer-Glo; read-out: NCI-H1373 cell proliferation inhibition IC50
Description: The inhibitory effect of the compound on PARP7 was evaluated by testing the inhibitory effect of the compound on NCI-H1373 cell proliferation.
NCI-H1373 cells (ATCC, CRL-5866) were cultured in a complete medium, namely, a RPMI-1640 medium (Gibco, 22400089) containing 10% fetal bovine serum (Corning, 35-081-CV).
Negative control wells and positive control wells were added with 50 nL DMSO (Sigma, D2650), respectively.
In "Day 0" detection plate, NCI-H1373 cells were seeded at a density of 600 cells/well (50 µL) in a complete medium into the Day 0 test wells of a 384-well detection plate (Grenier, 781091). Then, 25 µL of Cell-Titer-Glo reagent (Promega, G7573) was added to each well, followed by centrifugation at 1000 rpm at room temperature for 1 minute and incubation at room temperature under shaded conditions for 10 min. Chemiluminescence signals were collected using an Envision (Perkin Elmer, EnVision 2105) to obtain the average value of the Day 0 test values.
In "compound detection plate", NCI-H1373 cells were seeded at a density of 600 cells/well (50 µL) in a complete medium into the negative control wells and the compound detection wells of a 384-well detection plate (Grenier, 781091), and 50 µL of cell culture medium was added to the positive control wells, followed by centrifugation at 1000 rpm at room temperature for 1 minute and placing in a cell incubator at 37°C, 5% CO2 for incubation for 6 days. […] Chemiluminescence signals were collected using an Envision (Perkin Elmer, EnVision 2105). The test values for each compound well, negative control well, and positive control well were obtained.
The proliferation inhibition ratio formula is as follows: [formula]
The average value of the negative control = the average value of the Day 6 test values of each negative control well minus the average value of the Day 0 test values
The average value of the positive control = the average value of the Day 6 test values of each positive control well
The average value of the compound test = (the Day 6 test value of compound test well 1 + the Day 6 test value of compound test well 2)/2 - the average value of the Day 0 test values

[3] = biological target: T1, PARP7; test: Inhibition of the compound on PARP7 protein activity (ADP-ribosylation, chemiluminescence); format: biochemical; details: Histone H1 coated plate, Biotin-Labeled NAD+, 2 h at room temperature, chemiluminescence; read-out: PARP7 activity inhibition IC50

SMILES | IC50 [1] [nM] | IC50 [2] [nM] | IC50 [3] [nM]
O=C(CCc1c[nH]c(=O)c2ccccc12)Nc1ccc(-c2ncc(C(F)(F)F)cn2)cc1 [Example 12] | 10 to 30 |  | 3 to 10
Cc1cc(NCCCC(C)NC(=O)c2cnc(-c3ncc(C(F)(F)F)cn3)cn2)c(C#N)c(=O)[nH]1 (stereo not drawn) [Example 49] | > 100 |  | 30 to 100
CC(CCCNC(=O)c1ccc(-c2ncc(C(F)(F)F)s2)cc1F)Nc1cc[nH]c(=O)c1C#N (stereo not drawn) [Example 71] | > 100 |  | > 100
CC(CCCNC(=O)c1ccc(-c2cc(C(F)(F)F)sn2)cc1)Nc1cn[nH]c(=O)c1C(F)(F)F (stereo not drawn) [Example 83] | < 10 | < 300 | 
O=C(NCC1CC(Nc2cn[nH]c(=O)c2C(F)(F)F)C1)c1ccc(-c2ncc(C(F)(F)F)s2)cc1 (stereo not drawn) [Example 129] | > 100 |  | 
O=C(NCCC1CC(OC2CC2)CN1c1cn[nH]c(=O)c1C(F)(F)F)c1ccc(-c2ncc(C(F)(F)F)s2)cn1 (stereo not drawn) [Example 138] | > 100 |  | 
CC(CC1CN(C(=O)c2ccc(-n3cc(C(F)(F)F)cn3)cc2)C1)Nc1cn[nH]c(=O)c1C(F)(F)F (stereo not drawn) [Example 218] | > 100 |  | 
O=C(c1ccc(-c2ncc(C(F)(F)F)s2)cc1)N1CC2(CC(Nc3cn[nH]c(=O)c3C(F)(F)F)C2)C1 [Example 219] | > 100 |  | 
O=C(NCCC[C@@H](Nc1cn[nH]c(=O)c1C(F)(F)F)C(=O)N1CCC2(CC2)C1)c1ccc(-c2ncc(C(F)(F)F)s2)cc1 [Example 220] | < 10 | < 300 | 
C[C@@H]1CCN(C(=O)[C@@H](CCCNC(=O)c2ccc(-c3ncc(C(F)(F)F)s3)cc2)Nc2cn[nH]c(=O)c2C(F)(F)F)C1 [Example 225] | < 10 | < 300 | 
O=C(NCC1CC(Nc2cn[nH]c(=O)c2C(F)(F)F)C1)c1ccc(-c2ncc(C(F)(F)F)cn2)cc1 (stereo not drawn) [Example 226] | > 100 |  | 
CC1(NC(=O)[C@@H](CCCNC(=O)c2ccc(-c3ncc(C(F)(F)F)s3)cc2)Nc2cn[nH]c(=O)c2C(F)(F)F)CCOCC1 [Example 227] | < 10 | < 300 | 
O=C(NCCC[C@@H](Nc1cn[nH]c(=O)c1C(F)(F)F)C(=O)Nc1cccnc1)c1ccc(-c2ncc(C(F)(F)F)s2)cc1 [Example 234] | < 10 | 300 to 1000 | 
O=C(NCCC[C@@H](Nc1cn[nH]c(=O)c1C(F)(F)F)C(=O)N1CCSCC1)c1ccc(-c2ncc(C(F)(F)F)s2)cc1 [Example 236] | 10 to 30 | 300 to 1000 | 
C[C@H]1CCN1C(=O)[C@@H](CCCNC(=O)c1ccc(-c2ncc(C(F)(F)F)s2)cc1)Nc1cn[nH]c(=O)c1C(F)(F)F [Example 240] | 10 to 30 | > 3000 | 
NC(=O)c1cccc2cn(CCCNC(=O)c3ncc(-c4ncc(C(F)(F)F)s4)cc3F)nc12 [Example 249] | 30 to 100 | > 3000 | 
CC(COCc1cc(-c2cnc(C(F)(F)F)nc2)sn1)Nc1cn[nH]c(=O)c1C(F)(F)F (stereo not drawn) [Example 251] | > 100 | > 3000 | 
NC(=O)c1cccc2cn(CCCn3cnc4cc(-c5ncc(C(F)(F)F)cn5)c(F)cc4c3=O)nc12 [Example 252] | > 100 | > 3000 | 
NC(=O)c1cccc2cn(CCCn3ccc4cc(-c5ncc(C(F)(F)F)cn5)c(F)cc4c3=O)nc12 [Example 254] | > 100 |  | 
COC1CCN(C(=O)[C@@H](CCCNC(=O)c2ccc(-c3ncc(C(F)(F)F)s3)cc2)Nc2cn[nH]c(=O)c2C(F)(F)F)CC1 [Example 255] | < 10 | 300 to 1000 | 
COC1CN(C(=O)[C@@H](CCCNC(=O)c2ccc(-c3ncc(C(F)(F)F)s3)cc2)Nc2cn[nH]c(=O)c2C(F)(F)F)C1 [Example 256] | < 10 | 300 to 1000 | 
Cc1cccc(NC(=O)[C@@H](CCCNC(=O)c2ccc(-c3ncc(C(F)(F)F)s3)cc2)Nc2cn[nH]c(=O)c2C(F)(F)F)n1 [Example 257] | < 10 | < 300 | 
CC(C)NC(=O)[C@@H](CCCNC(=O)c1ccc(-c2ncc(C(F)(F)F)s2)cc1)Nc1cn[nH]c(=O)c1C(F)(F)F [Example 258] | < 10 | < 300 | 
CCN(C)C(=O)[C@@H](CCCNC(=O)c1ccc(-c2ncc(C(F)(F)F)s2)cc1)Nc1cn[nH]c(=O)c1C(F)(F)F [Example 259] | < 10 | < 300 | 
N#C[C@@H]1CCCN(C(=O)[C@@H](CCCNC(=O)c2ccc(-c3ncc(C(F)(F)F)s3)cc2)Nc2cn[nH]c(=O)c2C(F)(F)F)C1 [Example 260] | 10 to 30 | 1000 to 3000 | 
N#CC1CCN(C(=O)C(CCCNC(=O)c2ccc(-c3ncc(C(F)(F)F)s3)cc2)Nc2cn[nH]c(=O)c2C(F)(F)F)C1 (stereo not drawn) [Example 261] | 30 to 100 | 300 to 1000 | 
CC[C@@H]1CN(C(=O)[C@@H](CCCNC(=O)c2ccc(-c3ncc(C(F)(F)F)s3)cc2)Nc2cn[nH]c(=O)c2C(F)(F)F)CCO1 [Example 262] | 10 to 30 | < 300 | 

Continued, values first:

IC50 [1] [nM] | IC50 [2] [nM] | IC50 [3] [nM] | SMILES
< 10 | 1000 to 3000 | < 3 | CC(CCCNC(=O)c1ccc(-c2ncc(C(F)(F)F)cn2)cc1O)Nc1cn[nH]c(=O)c1C(F)(F)F (stereo not drawn) [Example 1]
< 10 | 300 to 1000 | < 3 | CC(CCCNC(=O)c1ccc(-c2ncc(C(F)(F)F)cn2)cc1F)Nc1cn[nH]c(=O)c1C(F)(F)F (stereo not drawn) [Example 2]
< 10 | 300 to 1000 | < 3 | CC(CCCNC(=O)c1ccc(-c2ncc(C(F)(F)F)cn2)cc1)Nc1cn[nH]c(=O)c1C(F)(F)F (stereo not drawn) [Example 3]
10 to 30 | > 3000 | < 3 | CC(CCCNC(=O)c1cccc2c1CCN2c1ncc(C(F)(F)F)cn1)Nc1cn[nH]c(=O)c1C(F)(F)F (stereo not drawn) [Example 5]
30 to 100 | > 3000 |  | CC(CCNC(=O)c1n[nH]c2cc(-c3ncc(C(F)(F)F)cn3)ccc12)Nc1cn[nH]c(=O)c1C(F)(F)F (stereo not drawn) [Example 7]
10 to 30 | > 3000 |  | CC(CCNC(=O)c1n[nH]c2c1CCN(c1ncc(C(F)(F)F)cn1)C2)Nc1cn[nH]c(=O)c1C(F)(F)F (stereo not drawn) [Example 8]
10 to 30 | > 3000 |  | Cc1cnc(-c2cnc(C(=O)NCCCC(C)Nc3cn[nH]c(=O)c3C(F)(F)F)cn2)s1 (stereo not drawn) [Example 24]
> 100 |  | 30 to 100 | Cc1cc(NC(C)CCCN(C)C(=O)c2ccc(-c3ncc(C(F)(F)F)cn3)cc2O)c(C#N)c(=O)[nH]1 (stereo not drawn) [Example 33]
> 100 |  | 30 to 100 | CC(CCCN(C)C(=O)c1cnc(N2CCOCC2)cn1)Nc1cn[nH]c(=O)c1C(F)(F)F (stereo not drawn) [Example 36]
> 100 |  | > 100 | CC(CCCN(C)C(=O)c1cnc(N2CCN(C3CC3)CC2)cn1)Nc1cn[nH]c(=O)c1C(F)(F)F (stereo not drawn) [Example 37]
30 to 100 | > 3000 |  | Cc1c(-c2cnc(C(F)(F)F)s2)ncn(CCCC(C)Nc2cn[nH]c(=O)c2C(F)(F)F)c1=O (stereo not drawn) [Example 248]
10 to 30 | > 3000 |  | CC(CCCn1ccc2cc(-c3ncc(C(F)(F)F)cn3)cnc2c1=O)Nc1cn[nH]c(=O)c1C(F)(F)F (stereo not drawn) [Example 250]
< 10 | 1000 to 3000 |  | CC(CCCn1ccc2cc(-c3ncc(C(F)(F)F)s3)cnc2c1=O)Nc1cn[nH]c(=O)c1C(F)(F)F (stereo not drawn) [Example 253]
